Measurements reported in patent US20180117644A1, “METHOD FOR WASHING SEVOFLURANE STORAGE CONTAINER AND METHOD FOR STORING SEVOFLURANE” (CENTRAL GLASS COMPANY, LIMITED, priority 2016, published 2018).
Where two headings read alike, the source gives them in different places.

Assays:
[1] = Degradation of sevoflurane (severe testing) with alumina, gas chromatographic composition; format: physicochemical; settings: sevoflurane with moisture 6 ppm, alumina 50 mg, 50° C., 64 hours, after third water washing
Experimental: In Example 1, sevoflurane was treated under conditions more stringent than actual sevoflurane storage conditions so that “polyether” was forcibly generated. Specifically, according to the disclosure of Patent Literature 5, the water content of sevoflurane was adjusted to be lower than that of sevoflurane obtained as a final product (6 ppm). Further, sevoflurane was heated to 50° C. under the presence of oxidized aluminium (alumina) serving as Lewis acid (i.e., a substance that is considered to catalyze sevoflurane degradation in Patent Literature 5). As a result, a portion of sevoflurane was degraded into polyether, resulting in generation of “sevoflurane containing polyether” in the system. It was attempted to wash the obtained “sevoflurane containing polyether” with water.
Sevoflurane (used as a pharmaceutical product) (100 cm^3) was placed in a erlenmeyer flask and cooled to 10° C. in a refrigerator. Then, synthetic zeolite was introduced into the erlenmeyer flask so that the weight ratio of synthetic zeolite:sevoflurane became 1:4. Next, the erlenmeyer flask was allowed to stand still in a refrigerator at 10° C. for 2 hours and 30 minutes for drying of sevoflurane (reduction of water content).
Alumina (50 mg) was placed in a 50-cm^3 brown bottle with a narrow mouth. Sevoflurane having a moisture content of 6 ppm prepared in (1-1) (20 cm^3, 29.9 g) was added thereto.
Next, the cap of the brown bottle with a narrow mouth was closed and the bottle was heated in a thermostatic bath at 50° C. for 64 hours. After heating for 64 hours, the bottle was cooled in a refrigerator (10° C.) for 1 hour.
As the sevoflurane obtained as a result of severe testing in (1-2) contained hydrogen fluoride (HF), water washing (back extraction of HF into an aqueous phase) was conducted for the ease of handling. Specifically, the sevoflurane subjected to severe testing and water (15 cm^3) were introduced into a separatory funnel made of tetrafluoroethylene, stirred for 1 minute, and allowed to stand still for 1 minute, followed by liquid separation. Then, the aqueous phase was collected and pH was checked using a pH test paper.
Meanwhile, after the third water washing, the gas chromatographic composition of the organic phase was detected as follows: sevoflurane: about 87%; polyether 1: 8.4% (84000 ppm); and polyether 2: 4.0% (40000 ppm). In addition, 190 ppm of hexafluoroisopropyl alcohol (HFIP) was detected.

[2] = Moisture content of liquid sevoflurane stored with dry nitrogen in autoclave (Karl Fischer); format: physicochemical
Experimental: A 1-dm^3 autoclave (SUS304) used as a sevoflurane storage container was filled with dry nitrogen. Liquid sevoflurane (i.e., a sevoflurane product containing 400 ppm of water) (30 g) was added thereto. The autoclave was hermetically closed and stored at room temperature for 1 month. Then, moisture content was measured using a Karl Fischer moisture meter. […] The liquid sevoflurane was stored for another month in the autoclave in the same manner. Then, the moisture content was measured again.

[3] = cited from earlier work
[4] = as disclosed in Patent Literature 5; cited from earlier work

- gas chromatographic composition of the organic phase: polyether 1 [1]: 8.4%
- gas chromatographic composition of the organic phase: polyether 2 [1]: 4.0%
- gas chromatographic composition of the organic phase: sevoflurane [1]: about 87%
- hexafluoroisopropyl alcohol (HFIP) detected in the organic phase [1]: 190 ppm
- moisture content ([2]; product containing 400 ppm of water, 30 g in 1-dm^3 autoclave (SUS304) filled with dry nitrogen, room temperature, 1 month): 360 ppm
- moisture content ([2]; same storage, another month (2 months in total)): 350 ppm
Compound: FCOC(C(F)(F)F)C(F)(F)F [sevoflurane, Fluoromethyl-1,1,1,3,3,3-hexafluoroisopropyl ether]
- vapor pressure ([3]; 25° C.): about 0.026 MPa
- vapor pressure ([3]; 35° C.): about 0.041 MPa
- vapor pressure ([3]; 45° C.): about 0.061 MPa
- upper limit of the amount of water that can be mixed with sevoflurane [4]: about 1400 ppm
